According to patent US11731986B2 (Sanford Burnham Prebys Medical Discovery Institute, priority 2017, dated 2023):

Target: T1, human LMPTP-A (Homo sapiens, UniProt P24666)
T1 sequence (P24666 1-158): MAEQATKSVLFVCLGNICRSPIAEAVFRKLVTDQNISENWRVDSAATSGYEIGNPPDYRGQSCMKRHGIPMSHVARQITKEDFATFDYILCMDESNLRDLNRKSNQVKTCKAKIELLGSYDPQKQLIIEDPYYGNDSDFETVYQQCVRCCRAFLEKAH
Assay: Enzyme Assay of Inhibition of LMPTP-A (phosphatase assay, OMFP or pNPP substrate)
Type: biochemical
Details: Bis-Tris pH 6.0, 37° C.
Protocol: Phosphatase assays were performed in buffer containing 50 mM Bis-Tris, pH 6.0, 1 mM DTT and 0.01% Triton X-100 at 37° C. For assays conducted with 3-O-methylfluorescein phosphate (OMFP) as substrate, fluorescence was monitored continuously at λex=485 and λem=525 nm. For assays conducted with para-nitrophenylphosphate (pNPP) as substrate, the reaction was stopped by addition of 2× reaction volume of 1 M NaOH, and absorbance was measured at 405 nm. IC50 values of compounds of Formula (I), (II), (III), or (IV) were determined from plots of inhibitor concentration versus percentage of enzyme activity. For inhibitor selectivity assays, each PTP was incubated with either 0.4 mM OMFP or 5 mM pNPP in the presence of 40 μM compound or DMSO. […] For the inhibitor reversibility assay, 50 nM human LMPTP-A was pre-incubated with 10 μM of compound of Formula (I), (II), (III), or (IV) or DMSO for 5 min. The enzyme was diluted 100× in phosphatase assay buffer containing 0.4 mM OMFP and fluorescence was measured at the indicated time points.

SMILES	IC50 [µM]
CN1CCC(NC(=O)c2cc3cc(-c4cc(NC5CCN(C)CC5)c5cnccc5n4)ccc3n2C)CC1 [1-Methyl-N-(1-methylpiperidin-4-yl)-5-(4-((1-methylpiperidin-4-yl)amino)-1,6-naphthyridin-2-yl)-1H-indole-2-carboxamide]	≤ 1
CCN(CC)C(=O)c1ccc(-c2cc(NCCCN3CCCCC3)nc3ncccc23)cc1 [N,N-diethyl-4-(2-(3-(piperidin-1-yl)propylamino)-1,8-naphthyridin-4-yl)benzamide]	≥ 20
CCN(CC)C(=O)c1ccc(-c2cc(NCCCN3CCCCC3)c3cnccc3n2)c(C#N)c1 [3-cyano-N,N-diethyl-4-(4-((3-(piperidin-1-yl)propyl)amino)-1,6-naphthyridin-2-yl)benzamide]	1 to 20
CCN(CC)C(=O)c1ccc(-c2cc(NCCCN3CCCCC3)c3cnccc3n2)cc1 [N,N-diethyl-4-(4-(3-(piperidin-1-yl)propylamino)-1,6-naphthyridin-2-yl)benzamide]	≤ 1
CCN(CC)C(=O)CCc1ccc(-c2cc(NC3CCN(C)CC3)c3cnccc3n2)cc1 [N,N-Diethyl-3-(4-(4-(1-methylpiperidin-4-ylamino)-1,6-naphthyridin-2-yl)phenyl)propanamide]	≤ 1
O=C(NCCCN1CCCCC1)c1nc2cc(-c3cc(NCCCN4CCCCC4)c4cnccc4n3)ccc2[nH]1 [N-(3-(piperidin-1-yl)propyl)-5-(4-((3-(piperidin-1-yl)propyl)amino)-1,6-naphthyridin-2-yl)-1H-benzo[d]imidazole-2-carboxamide]	≤ 1
O=C(NCCc1ccncc1)c1cc2ccc(-c3cc(NCCCN4CCCCC4)c4cnccc4n3)cc2[nH]1	≤ 1
CCN(CC)C(=O)c1ccc(-c2cc(NCCCN3CCNCC3)c3cnccc3n2)cc1 [N,N-Diethyl-4-(4-((3-(piperazin-1-yl)propyl)amino)-1,6-naphthyridin-2-yl)benzamide]	1 to 20
CN1CCC(NC(=O)CCOCc2ccc(-c3cc(NCCCN4CCCCC4)c4cnccc4n3)cc2)CC1 [N-(1-Methylpiperidin-4-yl)-3-(4-(4-(3-(piperidin-1-yl)propylamino)-1,6-naphthyridin-2-yl)benzyloxy)propanamide]	≤ 1
CCN(CC)C(=O)/C=C/c1ccc(-c2cc(NCCCN3CCCCC3)c3cnccc3n2)o1 [(E)-N,N-Diethyl-3-(5-(4-((3-(piperidin-1-yl)propyl)amino)-1,6-naphthyridin-2-yl)furan-2-yl)acrylamide]	1 to 20
CCN(CC)C(=O)c1ccc(-c2cc(NCCN(C)C)c3cnccc3n2)cc1 [4-(4-((2-(Dimethylamino)ethyl)amino)-1,6-naphthyridin-2-yl)-N,N-diethylbenzamide]	1 to 20
CN1CCC(CNC(=O)/C=C/c2ccc(-c3cc(NCCCN4CCCCC4)c4cnccc4n3)cc2)CC1 [(E)-N-((1-Methylpiperidin-4-yl)methyl)-3-(4-(4-(3-(piperidin-1-yl)propylamino)-1,6-naphthyridin-2-yl)phenyl)acrylamide]	≤ 1
CCN(CC)C(=O)c1ccc(-c2cc(NC3CCN(C)C3)c3cnccc3n2)cc1 (centres unmarked) [N,N-Diethyl-4-(4-(1-methylpyrrolidin-3-ylamino)-1,6-naphthyridin-2-yl)benzamide]	1 to 20
CN1CCN(CCCNC(=O)c2nc3cc(-c4cc(Nc5ccc(CN6CCCC6)cc5)c5cnccc5n4)ccc3[nH]2)CC1 [N-(3-(4-methylpiperazin-1-yl)propyl)-5-(4-((4-(pyrrolidin-1-ylmethyl)phenyl)amino)-1,6-naphthyridin-2-yl)-1H-benzo[d]imidazole-2-carboxamide]	≥ 20
O=C(c1nc2cc(-c3cc(NCCCN4CCCCC4)c4cnccc4n3)ccc2[nH]1)N1CCNCC1	≤ 1
CCN(CC)C(=O)c1ccc(-c2cc(NCCCN3CCCCC3)c3cncc(Br)c3n2)cc1 [4-(8-Bromo-4-((3-(piperidin-1-yl)propyl)amino)-1,6-naphthyridin-2-yl)-N,N-diethylbenzamide]	≥ 20
CCN(CC)C(=O)/C=C/c1ccc(-c2cc(Nc3ccc(CN4CCCC4)cc3)c3cnccc3n2)cc1 [(E)-N,N-Diethyl-3-(4-(4-((4-(pyrrolidin-1-ylmethyl)phenyl)amino)-1,6-naphthyridin-2-yl)phenyl)acrylamide]	1 to 20
O=C(NC1CCNCC1)c1ccc(-c2cc(NCCCN3CCCCC3)c3cnccc3n2)c(C(F)(F)F)c1 [4-(4-((3-(piperidin-1-yl)propyl)amino)-1,6-naphthyridin-2-yl)-N-(piperidin-4-yl)-3-(trifluoromethyl)benzamide]	1 to 20

SMILES	IC50 [µM]
CCN(CC)C(=O)c1ccc(-c2cc(Nc3ccc(CN(C)C)cc3)c3cnccc3n2)cc1 [4-(4-(4-((Dimethylamino)methyl)phenylamino)-1,6-naphthyridin-2-yl)-N,N-diethylbenzamide]	1 to 20
Cn1c(C(=O)NC2CCNCC2)cc2cc(-c3cc(NCCCN4CCCCC4)c4cnccc4n3)ccc21 [1-methyl-5-(4-((3-(piperidin-1-yl)propyl)amino)-1,6-naphthyridin-2-yl)-N-(piperidin-4-yl)-1H-indole-2-carboxamide]	≤ 1
CCN(CC)C(=O)c1ccc(-c2cc(NCCCN3CCCCC3)c3ncccc3n2)cc1 [N,N-diethyl-4-(4-(3-(piperidin-1-yl)propylamino)-1,5-naphthyridin-2-yl)benzamide]	≥ 20
O=C(c1nc2ccc(-c3cc(NCCCN4CCCCC4)c4cnccc4n3)cc2s1)N1CCOCC1 [Morpholino(6-(4-(3-(piperidin-1-yl)propylamino)-1,6-naphthyridin-2-yl)benzo[d]thiazol-2-yl)methanone]	1 to 20
O=C(c1cc2ccc(-c3cc(NCCCN4CCCCC4)c4cnccc4n3)cc2s1)N1CCNCC1 [Piperazin-1-yl(6-(4-(3-(piperidin-1-yl)propylamino)-1,6-naphthyridin-2-yl)benzo[b]thiophen-2-yl)methanone]	≤ 1
CCN(CC)C(=O)c1ccc(-c2cc(NCCN3CCN(S(C)(=O)=O)CC3)c3cnccc3n2)cc1 [N,N-diethyl-4-(4-(2-(4-(methylsulfonyl)piperazin-1-yl)ethylamino)-1,6-naphthyridin-2-yl)benzamide]	1 to 20
CN1CCC(N/C(=N\O)c2ccc(-c3cc(NCCCN4CCCCC4)c4cncc(Cl)c4n3)cc2)CC1 [(Z)-4-(8-chloro-4-((3-(piperidin-1-yl)propyl)amino)-1,6-naphthyridin-2-yl)-N′-hydroxy-N-(1-methylpiperidin-4-yl)benzimidamide]	≥ 20
Cc1cncc2c(NCCCN3CCCCC3)cc(-c3ccc(C(=O)NCCCN4CCCCC4)cc3)nc12 [4-(8-Methyl-4-((3-(piperidin-1-yl)propyl)amino)-1,6-naphthyridin-2-yl)-N-(3-(piperidin-1-yl)propyl)benzamide]	≥ 20
CN1CCN(CCCNC(=O)c2nc3cc(-c4cc(NCCCN5CCCCC5)c5cnccc5n4)ccc3[nH]2)CC1 [N-(3-(4-methylpiperazin-1-yl)propyl)-5-(4-((3-(piperidin-1-yl)propyl)amino)-1,6-naphthyridin-2-yl)-1H-benzo[d]imidazole-2-carboxamide]	≤ 1
CN1CCC(NC(=O)c2ccc(-c3cc(NCCCN4CCCCC4)c4cncc(Br)c4n3)cc2)CC1 [4-(8-Bromo-4-((3-(piperidin-1-yl)propyl)amino)-1,6-naphthyridin-2-yl)-N-(1-methylpiperidin-4-yl)benzamide]	≥ 20
CN1CCC(NC(=O)c2ccc(-c3cc(NCCCN4CCCCC4)c4cnccc4n3)c(C#N)c2)CC1 [3-cyano-N-(1-methylpiperidin-4-yl)-4-(4-((3-(piperidin-1-yl)propyl)amino)-1,6-naphthyridin-2-yl)benzamide]	1 to 20
O=C(COCc1ccc(-c2cc(NCCCN3CCCCC3)c3cnccc3n2)cc1)NCC1CCNCC1 [2-(4-(4-(3-(piperidin-1-yl)propylamino)-1,6-naphthyridin-2-yl)benzyloxy)-N-(piperidin-4-ylmethyl)acetamide]	≤ 1
O=C(NCCCN1CCCCC1)c1cc2ccc(-c3cc(NCCCN4CCCCC4)c4cnccc4n3)cc2s1 [N-(3-(piperidin-1-yl)propyl)-6-(4-(3-(piperidin-1-yl)propylamino)-1,6-naphthyridin-2-yl)benzo[b]thiophene-2-carboxamide]	≤ 1
CCN1CCC(CNC(=O)COCc2ccc(-c3cc(NCCCN4CCCCC4)c4cnccc4n3)cc2)CC1 [N-((1-ethylpiperidin-4-yl)methyl)-2-(4-(4-(3-(piperidin-1-yl)propylamino)-1,6-naphthyridin-2-yl)benzyloxy)acetamide]	1 to 20
Cn1c(C(=O)NC2CCSCC2)cc2cc(-c3cc(NCCCN4CCCCC4)c4cnccc4n3)ccc21 [1-methyl-5-(4-(3-(piperidin-1-yl)propylamino)-1,6-naphthyridin-2-yl)-N-(tetrahydro-2H-thiopyran-4-yl)-1H-indole-2-carboxamide]	≤ 1
CN1CCC(CNC(=O)COCc2ccc(-c3cc(NCCCN4CCCCC4)c4cnccc4n3)cc2)CC1 [N-((1-methylpiperidin-4-yl)methyl)-2-(4-(4-(3-(piperidin-1-yl)propylamino)-1,6-naphthyridin-2-yl)benzyloxy)acetamide]	≤ 1
CCN(CC)C(=O)c1ccc(-c2cc(NCCN3CCCCC3)c3cnccc3n2)cc1 [N,N-Diethyl-4-(4-((2-(piperidin-1-yl)ethyl)amino)-1,6-naphthyridin-2-yl)benzamide]	1 to 20
